{"source": "patent US6890708B2", "about": "“Method for improving the quality of sperm for artificial insemination of animals” (priority 2000, dated 2005)", "system": "Polymorphonuclear Neutrophils (PMN)", "assay": "In vitro phagocytosis of boar sperm by PMN (phagocytosis assay)", "type": "cell-based, pig", "conditions": "for % of phagocytosed sperm: Exp. 1; for inhibition at 200 µM / inhibition at 500 µM / inhibition at 1000 µM / inhibition at 2000 µM: Sus scrofa, Polymorphonuclear neutrophil, read-out: % inhibition (percentage decrease of phagocytosis relative to control)", "description": "Tyrode's medium was used as described as “standard Tyrode's medium” in […] et al. ([…], Harrison, R A P, Miller, N G A, Topper, E K, and Woelders, H, 1998, Enhanced Binding of Zona Pellucida Proteins to the Acrosomal Region of Intact Boar Spermatozoa in Response to Fertilizing Conditions: A Flow Cytometric Study. […] Serum was prepared from blood collected from 11 primiparous sows, pooled, and frozen in aliquots at -80° C. Per experiment, 20 ml peripheral blood of a single Dutch Landrace sow (each experiment a different sow) was collected in heparinized vacutainers (Venoject, Omnilabo, Breda, The Netherlands). The peripheral blood was subsequently diluted with an equal volume of phosphate buffered saline (PBS). […] The supernatant, including the mononuclear cells at the interface, was removed. The pellet was resuspended in 2 ml of ice-cold distilled water to lyse the erythrocytes. […] The PMNs were pelleted by centrifugation for 10 min at 400×g and the lysis procedure was repeated. […] All cell suspensions were pooled together, mixed well, and subjected to centrifugation. The PMN were resuspended in TM-s with inactivated complement, and the cell concentration was determined using a hemocytometer. The PMN preparation was stored overnight at 4° C. […] The viability, assessed by trypan blue exclusion, was >98%. Semen was obtained from Dutch A.I. stations. Per experiment, semen was used from a single Yorkshire breeding boar (each experiment a different boar). At the AI-station, the semen was diluted to a concentration of approximately 30×10^6 cells/ml in Beltsville Thawing Solution (BTS) (Johnson et al., 1988). The diluted semen was stored at 17° C. for up to 48 hours, until the diluted semen sample was used. […] Aliquots of 80 μl of the PMN suspension (see, PMN isolation and preparation of PMNs) in TM or TM-s, with either intact or inactivated complement, were transferred to a 96-well polystyrene microtest plate. […] The samples were incubated with gentle swirling on a test plate shaker. […] The heparin facilitates dissociation of agglutinated PMNs. The samples were thoroughly mixed, left for 15 min., and mixed again. […] The frozen-thawed semen was taken from a large stock of semen from one ejaculate and washed 3 times in PBS prior to use. […] The mounts enabled observation and counting of fluorescently labeled spermatozoa inside and outside the phagocytes. By focusing at different levels in the mount, spermatozoa that were located above or below the PMN could be distinguished from those that were phagocytosed. In many PMNs that had ingested a spermatozoon, the presence of the sperm nucleus or tail caused a conspicuous change of the shape of the PMN. Two hundred spermatozoa were evaluated and classified as inside or outside the PMN (i.e., phagocytosed or not phagocytosed). The same fixed mounts were used to assess the acrosome morphology of the non-phagocytosed spermatozoa at the moment of fixation.", "key": {"[1]": {"conditions": "Exp. 2, 0.2 mM, without pre-incubation, 15 min"}, "[2]": {"conditions": "Exp. 2, 0.2 mM, without pre-incubation, 30 min"}, "[3]": {"conditions": "Exp. 2, 0.2 mM, without pre-incubation, 60 min"}, "[4]": {"conditions": "Exp. 2, 0.5 mM, after pre-incubation, 15"}, "[5]": {"conditions": "Exp. 2, 0.5 mM, after pre-incubation, 30"}, "[6]": {"conditions": "Exp. 2, 0.5 mM, after pre-incubation, 60"}, "[7]": {"conditions": "Exp. 2, 0.5 mM, without pre-incubation, 15 min"}, "[8]": {"conditions": "Exp. 2, 0.5 mM, without pre-incubation, 30 min"}, "[9]": {"conditions": "Exp. 2, 0.5 mM, without pre-incubation, 60 min"}, "[10]": {"conditions": "Exp. 2, 1 mM, after pre-incubation, 15"}, "[11]": {"conditions": "Exp. 2, 1 mM, after pre-incubation, 30"}, "[12]": {"conditions": "Exp. 2, 1 mM, after pre-incubation, 60"}, "[13]": {"conditions": "Exp. 2, 1 mM, without pre-incubation, 15 min"}, "[14]": {"conditions": "Exp. 2, 1 mM, without pre-incubation, 30 min"}, "[15]": {"conditions": "Exp. 2, 1 mM, without pre-incubation, 60 min"}, "[16]": {"conditions": "Exp. 2, 2 mM, after pre-incubation, 15"}, "[17]": {"conditions": "Exp. 2, 2 mM, after pre-incubation, 30"}, "[18]": {"conditions": "Exp. 2, 2 mM, after pre-incubation, 60"}, "[19]": {"conditions": "Exp. 2, 2 mM, without pre-incubation, 15 min"}, "[20]": {"conditions": "Exp. 2, 2 mM, without pre-incubation, 30 min"}, "[21]": {"conditions": "Exp. 2, 2 mM, without pre-incubation, 60 min"}, "[22]": {"conditions": "Exp. 3, 1 mM, pre-incubation of sperm 30 min. at 38° C., 15 min"}, "[23]": {"conditions": "Exp. 3, 1 mM, pre-incubation of sperm 30 min. at 38° C., 30 min"}, "[24]": {"conditions": "Exp. 3, 1 mM, pre-incubation of sperm 30 min. at 38° C., 60 min"}}, "note": "Like-named read-outs stand apart in the source and are kept apart here."}
{"molecule": "Cn1c(=O)c2c(ncn2C)n(C)c1=O", "note": "[caffeine, 1,3,7-Trimethylxanthine]", "values": [{"measurement": "phagocytosis of sperm by PMN in vitro, in words", "value": "decreased"}, {"measurement": "% of phagocytosed sperm", "setting": "1 mM, without pre-incubation, 1st value column, head not printed", "value": 20, "unit": "%"}, {"measurement": "% of phagocytosed sperm", "setting": "1 mM, without pre-incubation, 2nd value column, head not printed", "value": 22, "unit": "%"}, {"measurement": "% of phagocytosed sperm", "setting": "1 mM, without pre-incubation, 3rd value column, head not printed", "value": 18, "unit": "%"}, {"measurement": "% of phagocytosed sperm", "setting": "2 mM, preincubated 30 min. at 38° C., phagocytosis time 15 min", "value": 22, "unit": "%"}, {"measurement": "% of phagocytosed sperm", "setting": "2 mM, preincubated 30 min. at 38° C., phagocytosis time 30 min", "value": 15, "unit": "%"}, {"measurement": "% of phagocytosed sperm", "setting": "2 mM, preincubated 30 min. at 38° C., phagocytosis time 60 min", "value": 29, "unit": "%"}, {"measurement": "% of phagocytosed sperm", "setting": "2 mM, preincubated 30 min. at 38° C., phagocytosis time 90 min", "value": 20, "unit": "%"}, {"measurement": "% phagoc. sperm", "setting": "[1]", "value": 48, "unit": "%"}, {"measurement": "% phagoc. sperm", "setting": "[2]", "value": 73, "unit": "%"}, {"measurement": "% phagoc. sperm", "setting": "[3]", "value": 75, "unit": "%"}, {"measurement": "% phag. Sperm", "setting": "[4]", "value": 29, "unit": "%"}, {"measurement": "% phag. Sperm", "setting": "[5]", "value": 28, "unit": "%"}, {"measurement": "% phag. Sperm", "setting": "[6]", "value": 42, "unit": "%"}, {"measurement": "% phagoc. sperm", "setting": "[7]", "value": 40, "unit": "%"}, {"measurement": "% phagoc. sperm", "setting": "[8]", "value": 67, "unit": "%"}, {"measurement": "% phagoc. sperm", "setting": "[9]", "value": 68, "unit": "%"}, {"measurement": "% phag. Sperm", "setting": "[10]", "value": 14, "unit": "%"}, {"measurement": "% phag. Sperm", "setting": "[11]", "value": 26, "unit": "%"}, {"measurement": "% phag. Sperm", "setting": "[12]", "value": 24, "unit": "%"}, {"measurement": "% phagoc. sperm", "setting": "[13]", "value": 29, "unit": "%"}, {"measurement": "% phagoc. sperm", "setting": "[14]", "value": 58, "unit": "%"}, {"measurement": "% phagoc. sperm", "setting": "[15]", "value": 62, "unit": "%"}, {"measurement": "% phag. Sperm", "setting": "[16]", "value": 9, "unit": "%"}, {"measurement": "% phag. Sperm", "setting": "[17]", "value": 17, "unit": "%"}, {"measurement": "% phag. Sperm", "setting": "[18]", "value": 21, "unit": "%"}, {"measurement": "% phagoc. sperm", "setting": "[19]", "value": 28, "unit": "%"}, {"measurement": "% phagoc. sperm", "setting": "[20]", "value": 51, "unit": "%"}, {"measurement": "% phagoc. sperm", "setting": "[21]", "value": 56, "unit": "%"}, {"measurement": "% phag. Sperm", "setting": "[22]", "value": 32, "unit": "%"}, {"measurement": "% phag. Sperm", "setting": "[23]", "value": 45, "unit": "%"}, {"measurement": "% phag. Sperm", "setting": "[24]", "value": 56, "unit": "%"}, {"measurement": "phagocytosis of sperm, in words", "setting": "Exp. 4, caffeine added to the semen extender the day before use", "value": "inhibits phagocytosis after one day"}, {"measurement": "phagocytosis of sperm by PMN in vitro, in words", "setting": "Exp. 5, 1 mM", "value": "reduced the phagocytosis of sperm by PMN in vitro"}, {"measurement": "inhibition at 200 µM", "setting": "[1]", "value": 9, "unit": "%"}, {"measurement": "inhibition at 200 µM", "setting": "[2]", "value": 4, "unit": "%"}, {"measurement": "inhibition at 200 µM", "setting": "[3]", "value": 3, "unit": "%"}, {"measurement": "inhibition at 500 µM", "setting": "[4]", "value": 38, "unit": "%"}, {"measurement": "inhibition at 500 µM", "setting": "[5]", "value": 56, "unit": "%"}, {"measurement": "inhibition at 500 µM", "setting": "[6]", "value": 33, "unit": "%"}, {"measurement": "inhibition at 500 µM", "setting": "[7]", "value": 25, "unit": "%"}, {"measurement": "inhibition at 500 µM", "setting": "[8]", "value": 12, "unit": "%"}, {"measurement": "inhibition at 500 µM", "setting": "[9]", "value": 12, "unit": "%"}, {"measurement": "inhibition at 1000 µM", "setting": "[10]", "value": 70, "unit": "%"}, {"measurement": "inhibition at 1000 µM", "setting": "[11]", "value": 59, "unit": "%"}, {"measurement": "inhibition at 1000 µM", "setting": "[12]", "value": 62, "unit": "%"}, {"measurement": "inhibition at 1000 µM", "setting": "[13]", "value": 45, "unit": "%"}, {"measurement": "inhibition at 1000 µM", "setting": "[14]", "value": 24, "unit": "%"}, {"measurement": "inhibition at 1000 µM", "setting": "[15]", "value": 19, "unit": "%"}, {"measurement": "inhibition at 2000 µM", "setting": "[16]", "value": 81, "unit": "%"}, {"measurement": "inhibition at 2000 µM", "setting": "[17]", "value": 73, "unit": "%"}, {"measurement": "inhibition at 2000 µM", "setting": "[18]", "value": 67, "unit": "%"}, {"measurement": "inhibition at 2000 µM", "setting": "[19]", "value": 47, "unit": "%"}, {"measurement": "inhibition at 2000 µM", "setting": "[20]", "value": 33, "unit": "%"}, {"measurement": "inhibition at 2000 µM", "setting": "[21]", "value": 27, "unit": "%"}, {"measurement": "inhibition at 1000 µM", "setting": "[22]", "value": 43, "unit": "%"}, {"measurement": "inhibition at 1000 µM", "setting": "[23]", "value": 37, "unit": "%"}, {"measurement": "inhibition at 1000 µM", "setting": "[24]", "value": 29, "unit": "%"}]}
